# In patent US20230257396A1, “MACROCYCLES AND THEIR USE” (BLOSSOMHILL THERAPEUTICS, INC., priority 2020, published 2023):
# Experiments:
# Assay in all cases: KINOMEscan kinase binding assay (Eurofins/DiscoveRx), % Ctrl
# [1] = target: T1, kinases (Homo sapiens, UniProt P00519, Q252H)
# T1 construct: purchased Eurofins/DiscoveRx; host or cells: E. coli BL21-derived host (T7 phage display) for most kinases; HEK-293 for the rest
# How it was run: (§1)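 Competition binding, 1 h RT: phage-tagged or HEK-293-expressed DNA-tagged kinase + immobilized ligand + compound. Eluate kinase by qPCR. % Ctrl = (test − positive ctrl)/(negative ctrl − positive ctrl) × 100; lower means stronger binding.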
# [2] = target: T2, kinases (Homo sapiens, UniProt P00519, T315I)
# T2 construct: purchased Eurofins/DiscoveRx; host or cells: E. coli BL21-derived host (T7 phage display) for most kinases; HEK-293 for the rest
# How it was run: as §1
# [3] = target: T3, kinases (Homo sapiens, UniProt P07949, V804M)
# T3 construct: purchased Eurofins/DiscoveRx; host or cells: E. coli BL21-derived host (T7 phage display) for most kinases; HEK-293 for the rest
# How it was run: as §1
# [4] = target: T4, kinases (Homo sapiens, UniProt P10721)
# T4 construct: purchased Eurofins/DiscoveRx; host or cells: E. coli BL21-derived host (T7 phage display) for most kinases; HEK-293 for the rest
# How it was run: as §1
# [5] = target: T5, kinases (Homo sapiens, UniProt P16234)
# T5 construct: purchased Eurofins/DiscoveRx; host or cells: E. coli BL21-derived host (T7 phage display) for most kinases; HEK-293 for the rest
# How it was run: as §1
# [6] = target: T6, kinases (Homo sapiens, UniProt P36888, D835Y)
# T6 construct: purchased Eurofins/DiscoveRx; host or cells: E. coli BL21-derived host (T7 phage display) for most kinases; HEK-293 for the rest
# T6 sequence (P36888 27-993 D835Y): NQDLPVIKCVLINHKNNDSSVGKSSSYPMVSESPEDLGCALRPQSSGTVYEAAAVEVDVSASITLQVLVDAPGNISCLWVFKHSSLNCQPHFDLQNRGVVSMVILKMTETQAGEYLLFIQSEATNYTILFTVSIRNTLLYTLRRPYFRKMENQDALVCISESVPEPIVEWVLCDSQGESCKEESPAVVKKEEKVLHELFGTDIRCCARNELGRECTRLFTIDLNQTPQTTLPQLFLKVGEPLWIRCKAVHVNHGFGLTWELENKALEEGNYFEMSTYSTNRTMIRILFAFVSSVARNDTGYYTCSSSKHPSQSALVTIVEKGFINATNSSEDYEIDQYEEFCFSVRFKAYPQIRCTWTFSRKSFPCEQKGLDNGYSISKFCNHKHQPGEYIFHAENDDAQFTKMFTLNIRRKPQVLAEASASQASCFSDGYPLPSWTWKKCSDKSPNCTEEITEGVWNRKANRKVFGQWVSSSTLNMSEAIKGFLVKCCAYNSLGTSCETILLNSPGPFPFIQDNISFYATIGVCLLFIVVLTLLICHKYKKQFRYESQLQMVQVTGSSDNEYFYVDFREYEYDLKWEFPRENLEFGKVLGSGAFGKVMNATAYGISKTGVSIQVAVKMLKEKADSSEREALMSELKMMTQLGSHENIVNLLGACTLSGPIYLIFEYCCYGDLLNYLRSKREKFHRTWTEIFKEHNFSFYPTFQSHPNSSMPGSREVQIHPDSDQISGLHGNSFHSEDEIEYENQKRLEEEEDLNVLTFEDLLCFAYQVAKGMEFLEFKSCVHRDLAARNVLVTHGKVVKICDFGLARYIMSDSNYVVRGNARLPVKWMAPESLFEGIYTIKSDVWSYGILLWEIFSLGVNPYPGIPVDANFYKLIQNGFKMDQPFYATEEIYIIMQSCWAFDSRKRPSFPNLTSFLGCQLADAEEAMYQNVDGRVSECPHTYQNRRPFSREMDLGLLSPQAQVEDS
# How it was run: as §1
# [7] = 1 μM; ABL1(Q252H)-nonphosphorylated
# [8] = 1 μM; ABL1(Q252H)-phosphorylated
# [9] = 1 μM; ABL1(T315I)-nonphosphorylated
# [10] = 1 μM; ABL1(T315I)-phosphorylated
# [11] = target ABL1(Q252H)-nonphosphorylated; 1 μM
# [12] = target ABL1(Q252H)-phosphorylated; 1 μM
# [13] = target ABL1(T315I)-nonphosphorylated; 1 μM
# [14] = target ABL1(T315I)-phosphorylated; 1 μM
# [15] = 1 μM; target ABL1(Q252H)-nonphosphorylated
# [16] = 1 μM; target ABL1(Q252H)-phosphorylated
# [17] = 1 μM; target ABL1(T315I)-nonphosphorylated
# [18] = 1 μM; target ABL1(T315I)-phosphorylated
# T4 sequence (P10721 26-976): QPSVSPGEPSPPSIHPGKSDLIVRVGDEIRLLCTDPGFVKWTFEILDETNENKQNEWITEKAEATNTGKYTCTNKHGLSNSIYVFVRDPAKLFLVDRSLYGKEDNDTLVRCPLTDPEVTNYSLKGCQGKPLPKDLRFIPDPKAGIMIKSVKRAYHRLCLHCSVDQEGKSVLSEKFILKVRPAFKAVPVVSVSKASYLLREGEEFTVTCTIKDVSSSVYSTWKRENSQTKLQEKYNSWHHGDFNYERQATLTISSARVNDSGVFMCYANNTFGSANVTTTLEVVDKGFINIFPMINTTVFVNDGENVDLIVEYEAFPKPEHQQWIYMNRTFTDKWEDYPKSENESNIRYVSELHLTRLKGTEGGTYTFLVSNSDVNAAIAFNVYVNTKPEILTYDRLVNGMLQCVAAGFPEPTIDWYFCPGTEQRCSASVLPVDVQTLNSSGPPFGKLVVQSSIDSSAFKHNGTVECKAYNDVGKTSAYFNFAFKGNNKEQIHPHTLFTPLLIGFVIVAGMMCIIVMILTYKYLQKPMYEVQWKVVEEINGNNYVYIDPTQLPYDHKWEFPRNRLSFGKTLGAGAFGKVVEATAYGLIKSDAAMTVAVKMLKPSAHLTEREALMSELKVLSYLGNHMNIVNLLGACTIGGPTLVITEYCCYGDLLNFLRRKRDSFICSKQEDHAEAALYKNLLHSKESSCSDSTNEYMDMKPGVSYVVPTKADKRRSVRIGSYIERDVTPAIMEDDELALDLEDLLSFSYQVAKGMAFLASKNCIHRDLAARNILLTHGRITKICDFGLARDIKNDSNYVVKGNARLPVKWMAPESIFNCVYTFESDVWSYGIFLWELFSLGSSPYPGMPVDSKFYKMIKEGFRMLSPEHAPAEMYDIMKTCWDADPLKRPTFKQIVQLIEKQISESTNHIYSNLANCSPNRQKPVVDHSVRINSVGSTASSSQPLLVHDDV
# T5 sequence (P16234 24-1089): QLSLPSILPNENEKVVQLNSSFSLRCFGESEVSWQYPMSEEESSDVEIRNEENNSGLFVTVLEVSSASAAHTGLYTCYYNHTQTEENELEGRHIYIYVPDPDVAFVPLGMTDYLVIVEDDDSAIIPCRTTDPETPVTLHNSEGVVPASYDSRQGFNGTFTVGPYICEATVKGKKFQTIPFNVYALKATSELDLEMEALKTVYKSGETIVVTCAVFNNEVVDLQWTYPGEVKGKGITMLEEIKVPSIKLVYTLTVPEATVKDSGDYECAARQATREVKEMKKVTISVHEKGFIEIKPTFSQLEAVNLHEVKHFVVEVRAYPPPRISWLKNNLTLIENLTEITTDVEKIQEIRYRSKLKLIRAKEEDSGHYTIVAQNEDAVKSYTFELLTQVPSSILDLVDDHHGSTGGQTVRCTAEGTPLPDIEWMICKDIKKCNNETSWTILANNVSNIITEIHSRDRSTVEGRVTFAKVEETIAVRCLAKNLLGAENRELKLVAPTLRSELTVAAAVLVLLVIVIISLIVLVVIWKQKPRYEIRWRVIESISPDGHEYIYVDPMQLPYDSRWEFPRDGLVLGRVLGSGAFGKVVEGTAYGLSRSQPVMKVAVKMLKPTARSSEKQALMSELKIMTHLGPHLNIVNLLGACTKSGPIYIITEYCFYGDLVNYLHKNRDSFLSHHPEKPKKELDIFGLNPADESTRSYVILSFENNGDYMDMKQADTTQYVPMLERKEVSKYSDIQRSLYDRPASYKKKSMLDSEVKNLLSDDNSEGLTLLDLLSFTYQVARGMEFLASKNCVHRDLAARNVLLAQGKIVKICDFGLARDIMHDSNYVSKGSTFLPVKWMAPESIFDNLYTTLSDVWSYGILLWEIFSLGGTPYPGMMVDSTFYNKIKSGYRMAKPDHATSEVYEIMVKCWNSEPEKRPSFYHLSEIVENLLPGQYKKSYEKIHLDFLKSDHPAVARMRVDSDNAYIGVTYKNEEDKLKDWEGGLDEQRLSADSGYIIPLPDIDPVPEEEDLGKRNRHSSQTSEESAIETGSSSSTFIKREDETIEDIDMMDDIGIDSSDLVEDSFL
# T3 sequence (P07949 29-1114 V804M): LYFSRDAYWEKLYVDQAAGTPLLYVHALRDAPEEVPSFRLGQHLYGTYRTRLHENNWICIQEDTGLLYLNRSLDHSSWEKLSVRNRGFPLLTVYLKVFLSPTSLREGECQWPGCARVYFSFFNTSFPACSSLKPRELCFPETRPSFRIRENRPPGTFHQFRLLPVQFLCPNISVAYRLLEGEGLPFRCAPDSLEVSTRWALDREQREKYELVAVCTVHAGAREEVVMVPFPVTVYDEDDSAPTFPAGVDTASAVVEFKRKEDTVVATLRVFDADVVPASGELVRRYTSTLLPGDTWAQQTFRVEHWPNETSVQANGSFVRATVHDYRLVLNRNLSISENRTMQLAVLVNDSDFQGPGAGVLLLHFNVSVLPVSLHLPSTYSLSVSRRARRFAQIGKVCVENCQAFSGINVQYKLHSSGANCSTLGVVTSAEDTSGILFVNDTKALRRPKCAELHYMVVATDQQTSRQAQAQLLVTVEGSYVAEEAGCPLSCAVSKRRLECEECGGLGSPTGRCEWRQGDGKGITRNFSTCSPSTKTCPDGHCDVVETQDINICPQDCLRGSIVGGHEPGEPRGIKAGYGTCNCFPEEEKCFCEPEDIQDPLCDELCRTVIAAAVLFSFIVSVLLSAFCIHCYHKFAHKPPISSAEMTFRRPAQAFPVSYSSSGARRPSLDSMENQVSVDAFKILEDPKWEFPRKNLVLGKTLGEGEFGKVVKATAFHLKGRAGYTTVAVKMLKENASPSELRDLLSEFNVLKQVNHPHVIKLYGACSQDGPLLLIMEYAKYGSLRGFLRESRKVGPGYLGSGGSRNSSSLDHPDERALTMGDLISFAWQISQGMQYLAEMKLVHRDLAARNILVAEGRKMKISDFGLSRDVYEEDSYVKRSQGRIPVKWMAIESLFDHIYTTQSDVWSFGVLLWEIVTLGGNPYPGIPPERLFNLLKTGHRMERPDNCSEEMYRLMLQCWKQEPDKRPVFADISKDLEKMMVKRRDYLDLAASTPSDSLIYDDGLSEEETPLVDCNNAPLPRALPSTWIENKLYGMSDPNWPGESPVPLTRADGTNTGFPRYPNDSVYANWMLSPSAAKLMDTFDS
SMILES,"% Ctrl, ABL1(Q252H)-nonphosphorylated [1, 11]","% Ctrl, ABL1(Q252H)-phosphorylated [1, 12]","% Ctrl, ABL1(T315I)-nonphosphorylated [2, 13]","% Ctrl, ABL1(T315I)-phosphorylated [2, 14]","% Ctrl, RET(V804M) ([3]; target RET(V804M); 1 μM)","% Ctrl, KIT-autoinhibited ([4]; target KIT-autoinhibited; 1 μM)","% Ctrl, KIT ([4]; target KIT; 1 μM)","% Ctrl, PDGFRA ([5]; target PDGFRA; 1 μM)","% Ctrl, FLT3(D835Y) ([6]; target FLT3(D835Y); 1 μM)",also measured
"Cc1cc2c([nH]1)/C=C1\C(=O)Nc3cc(Cl)c(cc31)OCCO[C@@H](C(=O)N[C@@H]1CCNC1)CN(C)C2=O [Ex. 136, [7R,16a(17)Z]-19-chloro-2,5-dimethyl-4,16-dioxo-N-[(3R)-pyrrolidin-3-yl]-4,5,6,7,9,10,15,16-octahydro-1H-12,14-(ethanediylidene)dipyrrolo[3,2-i:3′,4′-l][1,4,7]dioxazacyclopentadecine-7-carboxamide]",,,,,,,,,,"% Ctrl, ABL1(Q252H)-nonphosphorylated [1, 7]: 24 % Ctrl; % Ctrl, ABL1(Q252H)-phosphorylated [1, 8]: 14 % Ctrl; % Ctrl, ABL1(T315I)-nonphosphorylated [2, 9]: 77 % Ctrl; % Ctrl, ABL1(T315I)-phosphorylated [2, 10]: 37 % Ctrl; % Ctrl, RET(V804M) ([3]; 1 μM; RET(V804M)): 64 % Ctrl; % Ctrl, KIT ([4]; 1 μM; KIT): 49 % Ctrl; % Ctrl, KIT-autoinhibited ([4]; 1 μM; KIT-autoinhibited): 83 % Ctrl; % Ctrl, PDGFRA ([5]; 1 μM; PDGFRA): 56 % Ctrl; % Ctrl, FLT3(D835Y) ([6]; 1 μM; FLT3(D835Y)): 2.6 % Ctrl"
"Cc1cc2c([nH]1)/C=C1\C(=O)Nc3cc(Cl)c(cc31)OCCO[C@@H](C(=O)N(C)C)CN(C)C2=O [Ex. 137, [7R,16a(17)Z]-19-chloro-N,N,2,5-tetramethyl-4,16-dioxo-4,5,6,7,9,10,15,16-octahydro-1H-12,14-(ethanediylidene)dipyrrolo[3,2-i:3′,4′-l][1,4,7]dioxazacyclopentadecine-7-carboxamide]",,,,,,,,,,"% Ctrl, ABL1(Q252H)-nonphosphorylated [1, 7]: 48 % Ctrl; % Ctrl, ABL1(Q252H)-phosphorylated [1, 8]: 51 % Ctrl; % Ctrl, ABL1(T315I)-nonphosphorylated [2, 9]: 81 % Ctrl; % Ctrl, ABL1(T315I)-phosphorylated [2, 10]: 69 % Ctrl; % Ctrl, RET(V804M) ([3]; 1 μM; RET(V804M)): 57 % Ctrl; % Ctrl, KIT ([4]; 1 μM; KIT): 90 % Ctrl; % Ctrl, KIT-autoinhibited ([4]; 1 μM; KIT-autoinhibited): 72 % Ctrl; % Ctrl, PDGFRA ([5]; 1 μM; PDGFRA): 72 % Ctrl; % Ctrl, FLT3(D835Y) ([6]; 1 μM; FLT3(D835Y)): 14 % Ctrl"
"Cc1cc2c([nH]1)/C=C1\C(=O)Nc3cc(Cl)c(cc31)OCCO[C@@H](C(=O)N1CCN(C)CC1)CN(C)C2=O [Ex. 138, [7R,16a(17)Z]-19-chloro-2,5-dimethyl-7-(4-methylpipearazine-1-carbonyl)-6,7,9,10-tetrahydro-1H-12,14-(ethanediylidene)dipyrrolo[3,2-i:3′,4′-l][1,4,7]dioxazacyclopentadecine-4,16(5H,15H)-dione]",100 % Ctrl,98 % Ctrl,87 % Ctrl,76 % Ctrl,81 % Ctrl,96 % Ctrl,90 % Ctrl,75 % Ctrl,45 % Ctrl,
"Cc1cc2c([nH]1)/C=C1\C(=O)Nc3ccc(cc31)-c1c(noc1C)CNCCN(C)C2=O [Ex. 139, [3a(4)Z]-6,9,16-trimethyl-10,11,12,13-tetrahydro-2H-1,17-(ethanediylidene)[1,2]oxazolo[4,3-m]dipyrrolo[3,2-f:3′,4′-i][1,4]diazacyclopentadecine-3,8(5H,9H)-dione]",7.8 % Ctrl,5.1 % Ctrl,0.1 % Ctrl,3 % Ctrl,23 % Ctrl,81 % Ctrl,94 % Ctrl,74 % Ctrl,2.5 % Ctrl,
"CN1CCOCCOc2cc3c(cc2Cl)NC(=O)/C3=C\c2[nH]ccc2C1=O [Ex. 143, [16a(17)Z]-19-chloro-2,5-dimethyl-6,7,9,10-tetrahydro-1H-12,14-(ethanediylidene)dipyrrolo[3,2-i:3′,4′-l][1,4,7]oxathiazacyclopentadecine-4,16(5H,15H)-dione]",4.1 % Ctrl,5.2 % Ctrl,42 % Ctrl,27 % Ctrl,31 % Ctrl,40 % Ctrl,9.9 % Ctrl,41 % Ctrl,3.1 % Ctrl,
"Cc1cc2c([nH]1)/C=C1\C(=O)Nc3ccc(cc31)-c1c(C)nn(C)c1COCCN(C)C2=O [Ex. 146, [3a(4)Z]-6,9,14,16-tetramethyl-10,11,13,14-tetrahydro-2H-1,17-(ethanediylidene)pyrazolo[4,3-m]dipyrrolo[3,2-f:3′,4′-i][1,4]oxazacyclopentadecine-3,8(5H,9H)-dione]",74 % Ctrl,93 % Ctrl,64 % Ctrl,34 % Ctrl,12 % Ctrl,80 % Ctrl,96 % Ctrl,100 % Ctrl,22 % Ctrl,
"Cc1nn(C)c2c1-c1ccc3c(c1)/C(=C/c1[nH]ccc1C(=O)N(C)CCCO2)C(=O)N3 [Ex. 150, [3a(4)Z]-9,14,16-trimethyl-10,11,13,14-tetrahydro-2H-1,17-(ethanediylidene)pyrazolo[4,3-m]dipyrrolo[3,2-f:3′,4′-i][1,4]oxazacyclopentadecine-3,8(5H,9H)-dione]",93 % Ctrl,100 % Ctrl,93 % Ctrl,83 % Ctrl,68 % Ctrl,100 % Ctrl,97 % Ctrl,92 % Ctrl,67 % Ctrl,
CN1CCSCCOc2cc3c(cc2Cl)NC(=O)/C3=C\c2[nH]ccc2C1=O [Ex. 153],1.8 % Ctrl,7.9 % Ctrl,17 % Ctrl,25 % Ctrl,41 % Ctrl,14 % Ctrl,0.8 % Ctrl,9.1 % Ctrl,1.7 % Ctrl,
"Cc1cc2c([nH]1)/C=C1\C(=O)Nc3ccc(cc31)-c1c(noc1C(C)C)COCCN(C)C2=O [Ex. 161, [3a(4)Z]-9-methyl-16-(propan-2-yl)-10,11-dihydro-2H,13H-1,17-(ethanediylidene)[1,2]oxazolo[4,3-m]dipyrrolo[3,2-f:3′,4′-i][1,4]oxazacyclopentadecine-3,8(5H,9H)-dione]",,,,,,,,,,"% Ctrl, ABL1(Q252H)-nonphosphorylated [1, 15]: 100 % Ctrl; % Ctrl, ABL1(Q252H)-phosphorylated [1, 16]: 79 % Ctrl; % Ctrl, ABL1(T315I)-nonphosphorylated [2, 17]: 90 % Ctrl; % Ctrl, ABL1(T315I)-phosphorylated [2, 18]: 85 % Ctrl; % Ctrl, RET(V804M) ([3]; 1 μM; target RET(V804M)): 83 % Ctrl; % Ctrl, KIT ([4]; 1 μM; target KIT): 98 % Ctrl; % Ctrl, KIT-autoinhibited ([4]; 1 μM; target KIT-autoinhibited): 100 % Ctrl; % Ctrl, PDGFRA ([5]; 1 μM; target PDGFRA): 100 % Ctrl; % Ctrl, FLT3(D835Y) ([6]; 1 μM; target FLT3(D835Y)): 36 % Ctrl"
"CN1CCOc2cc3c(cc2Cl)NC(=O)/C3=C\c2[nH]ccc2C(=O)N(C)CC1 [Ex. 164, [16a(17)Z]-19-chloro-2,5,8-trimethyl-5,6,7,8,9,10-hexahydro-12,14-(ethanediylidene)dipyrrolo[3,2-i:3′,4′-l][1,4,7]oxadiazacyclopentadecine-4,16(1H,15H)-dione]",,,,,,,,,,"% Ctrl, ABL1(Q252H)-nonphosphorylated [1, 15]: 0.1 % Ctrl; % Ctrl, ABL1(Q252H)-phosphorylated [1, 16]: 0 % Ctrl; % Ctrl, ABL1(T315I)-nonphosphorylated [2, 17]: 0.6 % Ctrl; % Ctrl, ABL1(T315I)-phosphorylated [2, 18]: 1.4 % Ctrl; % Ctrl, RET(V804M) ([3]; 1 μM; target RET(V804M)): 2.1 % Ctrl; % Ctrl, KIT ([4]; 1 μM; target KIT): 18 % Ctrl; % Ctrl, KIT-autoinhibited ([4]; 1 μM; target KIT-autoinhibited): 81 % Ctrl; % Ctrl, PDGFRA ([5]; 1 μM; target PDGFRA): 30 % Ctrl; % Ctrl, FLT3(D835Y) ([6]; 1 μM; target FLT3(D835Y)): 0.5 % Ctrl"
